Measurements as given in US20240182526A1, “COMPOSITIONS AND METHODS FOR MODULTING INFLAMMATORY AND DEGENERATIVE DISORDER” (University of Southern California, priority 2021, published 2024).
Entries after “also recorded” stand apart in the source; their conditions may differ.

Columns and labels:
gp130 pY814 = target: T1, gp130 pY814 (Sus scrofa, UniProt A0A4X1SIN4); assay: Western blot of gp130 pY814 in OSM-stimulated pig articular chondrocytes; assay type: cell-based; details: with OSM, 4 and 24 hours
T1 construct: endogenous in cells; host or cells: pig articular chondrocytes (Yucatan minipig)
Method: (§1) For standard western blot, treated and non-treated cells were lysed in RIPA Lysis and Extraction Buffer (Pierce, Rockford, IL) containing protease inhibitors (Pierce) followed by sonication with a 15-second pulse at a power output of 2 using the VirSonic 100 (SP Industries Company, Warminster, PA). Protein concentrations were determined by BCA protein assay (Pierce). Proteins were resolved with SDS-PAGE utilizing 4-15% Mini-PROTEAN TGX Precast Gels and transferred to Trans-Blot Turbo Transfer Packs with a 0.2-μm pore-size nitrocellulose membrane. The SDS-PAGE running buffer, 4-15% Mini-PROTEAN TGX Precast Gels, Trans-Blot Turbo Transfer Packs with a 0.2-μm pore-size nitrocellulose membrane was purchased from Biorad (Hercules, CA). Nitrocellulose membranes were blocked in 5% nonfat milk in 0.05% (v/v) Tween 20 (PBST) (Corning, Manassas, VA). Membranes were then incubated with primary antibodies p-gp130 Y814 (Evseenko lab, AbClonal), p-AKT (cat #4060, Cell Signaling), p-ERK 1/2 (cat #9106, Cell Signaling), p-Y416-SRC (cat #1246F, Novus Biologicals), p-gp130 (cat #1453R, Bioss USA) and p-NFκBp65 (cat #8242, Cell Signaling), and/or YAP1 (cat #4912, Cell Signaling). Histone H3 (cat #9515, Cell Signaling) was used as loading control. […] Quantification of blots was performed using ImageJ 1.44 followed by Prism9 for analysis.

gp130 and pSRC = assay: Co-immunoprecipitation of complex formation between gp130 and pSRC in pig articular chondrocytes; assay type: cell-based; details: pig articular chondrocytes with or without OSM, 4 and 24 hours
Method: IP Western, SDS-PAGE and Western blot analysis. For transfections of gp130 wild type (WT) (InVivoGen) and gp130 mutant plasmids (Thermo Scientific), cells were plated 24 h prior to transfection to produce monolayers that were 60% confluent and these were transfected by using Turbo DNAfectin 3000 (cat #G3000, Lambda Biotech) according to the manufacturer's protocol. 72h after transfection, cells were maintained in DMEM (10% FBS, 1% PSA) and were either left untreated or were stimulated with IL-6 (10 ng/mL) and/or OSM (10 ng/mL) for 24 h before cell harvest and protein extraction. For immunoprecipitation assays, cell lysates were incubated with Protein G Agarose (cat #20398, Pierce) and anti-Flag antibody (cat #2368, Cell Signaling) at 4° C. overnight. The immune complexes were sedimented, washed and separated by SDS-PAGE (see below) and further analyzed by Western blot using p-SRC (pY416-SRC) (cat #1246F, Novus Biologicals) or NEMO (cat #18474-1-AP, Proteintech) antibodies and normalized to gp130 (cat #bs-1459R, Bioss) or total SRC (cat #2123, Cell Signaling). For R805 treatment, the immune complexes were sedimented, washed and separated by SDS-PAGE and further analyzed by Western blot using OSMR (cat #ab85575, Abcam), LIFR (Santa cat #515337, Cruz Biotechnology) or p-SRC (pY416-SRC) (Novus Biologicals, cat #1246F). Histone H3 (cat #9715, Cell Signaling), gp130 (cat #bs-1459R, Bioss), total SRC (cat #2123, Cell Signaling) or Flag antibody (cat #14739, Cell Signaling) were used as loading controls.
The studies delineate that gp130 Y814 regulates SRC downstream signaling; since SRC is known to associate with gp130, it was hypothesized that gp130 and SRC are capable of physically interacting on Y814 and hindering this interaction will prevent SRC from signaling. In order to impede this interaction, experiments were performed using an innovative peptide library screen with short and overlapping peptides mimicking the motif of gp130 around Y814 that were individually tested for pSRC downregulation; these peptides ranged from 4-15 amino acids. The peptides contained a protein sequence stretch of consecutive amino acids surrounding gp130 Y814 residue. To test their efficacy, pig articular chondrocytes were stimulated with or without OSM in presence or absence of the peptides followed by co-immunoprecipitation to determine interaction and western blot detecting pSRC activity. […] Due to sequence specificity, the peptide is capable of discriminating among other gp130 regions serving as a competitive inhibitor.

[1] = system: cleaved ACAN and COL2 neoepitopes; assay: Neoepitope assay on pig articular cartilage explants stimulated with OSM; assay type: cell-based; details: 72 hours, normalized to wet weight
Method: Neoepitope analysis. WT and F814 mouse articular cartilage explants were treated with or without OSM (10 ng/mL). Pig articular cartilage explants were stimulated with or without OSM (10 ng/mL) and treated with or without peptide QQpYF (100 μg/mL or 300 μg/mL). For R805 treatment, pig articular cartilage explants were stimulated with or without OSM (10 ng/mL) and treated with or without R805 (0.01, 0.1, 1 or 10 μM). The explants were then digested for 2 hr at 37° C. with 0.01 units chondroitinase ABC (Sigma Aldrich, St. Louis, MO). Samples were then dialyzed with ultrapure water for 24 hr at 4° C., freeze dried, dissolved in RIPA Lysis and Extraction Buffer (Pierce, IL) containing protease inhibitors (Pierce) followed by sonication. Proteins were separated and analyzed by Western blot using primary antibodies against aggrecan (cat #NB100-74350, Novus Biologicals,) and collagen II neoepitopes (cat #50-1035, Ibex). Wet weight of explants was used as loading control.

[2] = system: pro-inflammatory signaling in osteoarthritic chondrocytes; assay: Western blot of pro-inflammatory signaling proteins in osteoarthritic chondrocytes; assay type: cell-based, human; details: 4 and 24 hours
Method: as §1

[3] = 90-day pharmacokinetic study after intra-articular injection in Beagles; assay type: in vivo; details: Beagle
Method: Pharmacokinetic assessment of R805. Pharmacokinetics were conducted in a canine model for over 90 days. Purpose-bred beagles with intact stifles were injected intra-articularly with 500 μL of physiological saline containing 0.25% carboxymethyl cellulose (CMC) and either 1 μg or 100 ng of […] (n=4 each). Synovial fluid and plasma were collected at d0, d3, d7, d14, d21, d31, d60 and d90 and analyzed by LC-MS/MS. Doses of 10 μg, 1 μg and 0.1 μg of R805 were utilized for the main experiment.

T1 sequence (A0A4X1SIN4 23-917): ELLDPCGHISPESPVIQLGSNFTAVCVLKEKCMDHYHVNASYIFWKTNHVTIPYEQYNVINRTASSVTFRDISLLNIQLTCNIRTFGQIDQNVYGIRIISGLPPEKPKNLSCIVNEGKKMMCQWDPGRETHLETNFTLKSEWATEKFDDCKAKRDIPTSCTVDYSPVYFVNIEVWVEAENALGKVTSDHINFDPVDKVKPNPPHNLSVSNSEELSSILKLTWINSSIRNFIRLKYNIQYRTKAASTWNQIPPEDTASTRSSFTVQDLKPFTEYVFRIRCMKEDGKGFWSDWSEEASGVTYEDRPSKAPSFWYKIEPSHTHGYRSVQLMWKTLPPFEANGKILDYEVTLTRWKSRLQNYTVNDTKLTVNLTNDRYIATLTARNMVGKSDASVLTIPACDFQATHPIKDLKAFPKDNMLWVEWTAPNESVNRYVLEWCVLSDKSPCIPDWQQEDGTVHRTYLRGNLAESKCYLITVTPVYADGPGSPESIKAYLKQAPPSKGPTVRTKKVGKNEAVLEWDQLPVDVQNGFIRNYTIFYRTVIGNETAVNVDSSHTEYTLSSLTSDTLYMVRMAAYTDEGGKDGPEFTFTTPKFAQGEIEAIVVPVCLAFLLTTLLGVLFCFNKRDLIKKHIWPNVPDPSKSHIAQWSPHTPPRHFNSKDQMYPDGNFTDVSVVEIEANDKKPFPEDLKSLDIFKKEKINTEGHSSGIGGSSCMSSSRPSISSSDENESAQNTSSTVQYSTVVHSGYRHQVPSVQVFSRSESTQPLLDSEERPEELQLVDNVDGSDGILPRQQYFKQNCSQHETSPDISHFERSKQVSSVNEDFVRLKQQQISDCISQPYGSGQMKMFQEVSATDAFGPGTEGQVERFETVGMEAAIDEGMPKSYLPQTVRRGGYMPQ

## Cc1ccc(-c2csc(NC(=O)c3ccccn3)n2)cc1 [Peptide R805]
gp130 pY814
  OSM-stimulated activation of gp130 Y814 (protein expression of gp130 pY814): prevents Y814 activation in response to IL-6 cytokines; also recorded: selectively inhibited OSM-stimulated activation of Y814
gp130 pY814; listed as CX-011
  OSM-stimulated activation of gp130 Y814 (protein expression of gp130 pY814): potent inhibitor of OSM-stimulated activation of gp130 Y814
gp130 and pSRC
  complex formation between gp130 and pSRC (gp130-SRC interaction): able to prevent endogenous interaction of SRC with gp130; also recorded: prevents SRC binding to gp130
[1]
  matrix degeneration: levels of cleaved ACAN and COL2 neoepitopes: able to decrease; also recorded: protective effect on OSM-induced cartilage degeneration in vitro
[2]
  pro-inflammatory signaling in diseased tissue: markedly suppressed; also recorded: prevents pro-inflammatory signaling in diseased tissue
[3]; 1 μg intra-articular injection
  time that IC50 concentrations of R805 were maintained in the joint: 3 weeks
[3]; intra-articular injection, 90-day study
  detection in systemic circulation: never detected in systemic circulation; also recorded: not detected in systemic circulation
